Measured values reported in PubChem BioAssay AID2060910 (Molecular Pharmacology Branch, DTP, NCI, 2025).

Tested on: 242566-281-R-J2-PDC complex spheroid viability
Assay: Anticancer human tumor 242566-281-R-J2-PDC patient-derived pancreatic carcinoma cell line growth inhibition [RAS]
Conditions: for IC50: curve of first compound; for viability, T/C: stronger effect = lower value
In short: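 Tumour cells grown as complex spheroids with HUVEC endothelial cells and mesenchymal stem cells, treated with RAS pathway inhibitor combinations. Each agent spans half-log steps from near clinical Cmax, or 10 microM where Cmax is unknown.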

[1] = second compound 0.000949 µM, first compound 0.0316 µM
[2] = second compound 0.000949 µM, first compound 0.1 µM
[3] = second compound 0.000949 µM, first compound 0.316 µM
[4] = second compound 0.000949 µM, first compound 1 µM
[5] = second compound 0.000949 µM, first compound 3.16 µM
[6] = second compound 0.000949 µM, first compound 10 µM
[7] = second compound 0.003 µM, first compound 0.0316 µM
[8] = second compound 0.003 µM, first compound 0.1 µM
[9] = second compound 0.003 µM, first compound 0.316 µM
[10] = second compound 0.003 µM, first compound 1 µM
[11] = second compound 0.003 µM, first compound 3.16 µM
[12] = second compound 0.003 µM, first compound 10 µM
[13] = second compound 0.00949 µM, first compound 0.0316 µM
[14] = second compound 0.00949 µM, first compound 0.1 µM
[15] = second compound 0.00949 µM, first compound 0.316 µM
[16] = second compound 0.00949 µM, first compound 1 µM
[17] = second compound 0.00949 µM, first compound 3.16 µM
[18] = second compound 0.00949 µM, first compound 10 µM
[19] = second compound 0.03 µM, first compound 0.0316 µM
[20] = second compound 0.03 µM, first compound 0.1 µM
[21] = second compound 0.03 µM, first compound 0.316 µM
[22] = second compound 0.03 µM, first compound 1 µM
[23] = second compound 0.03 µM, first compound 3.16 µM
[24] = second compound 0.03 µM, first compound 10 µM
[25] = second compound 0.0949 µM, first compound 0.0316 µM
[26] = second compound 0.0949 µM, first compound 0.1 µM
[27] = second compound 0.0949 µM, first compound 0.316 µM
[28] = second compound 0.0949 µM, first compound 1 µM
[29] = second compound 0.0949 µM, first compound 3.16 µM
[30] = second compound 0.0949 µM, first compound 10 µM
[31] = second compound 0.3 µM, first compound 0.0316 µM
[32] = second compound 0.3 µM, first compound 0.1 µM
[33] = second compound 0.3 µM, first compound 0.316 µM
[34] = second compound 0.3 µM, first compound 1 µM
[35] = second compound 0.3 µM, first compound 3.16 µM
[36] = second compound 0.3 µM, first compound 10 µM
[37] = second compound 0.000949 µM, first compound 0.00316 µM
[38] = second compound 0.000949 µM, first compound 0.01 µM
[39] = second compound 0.003 µM, first compound 0.00316 µM
[40] = second compound 0.003 µM, first compound 0.01 µM
[41] = second compound 0.00949 µM, first compound 0.00316 µM
[42] = second compound 0.00949 µM, first compound 0.01 µM
[43] = second compound 0.03 µM, first compound 0.00316 µM
[44] = second compound 0.03 µM, first compound 0.01 µM
[45] = second compound 0.0949 µM, first compound 0.00316 µM
[46] = second compound 0.0949 µM, first compound 0.01 µM
[47] = second compound 0.3 µM, first compound 0.00316 µM
[48] = second compound 0.3 µM, first compound 0.01 µM
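Note: spheroids exposed to compound for 7 days before readout.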
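Throughout, for viability, T/C: 100% = DMSO vehicle control wells.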

`CC(C)NCC(C(=O)N1CCN(c2ncnc3c2C(C)CC3O)CC1)c1ccc(Cl)cc1` (stereo not drawn) + CCn1c(-c2cccnc2C(C)OC)c2c3cc(ccc31)N1CCOC(CC(NC(=O)C(C(C)C)N(C)C(=O)C3(F)CCN(C(=O)C#CC(C)(C)N(C)C)CC3)C(=O)N3CCCC(N3)C(=O)OCC(C)(C)C2)C1 showed an IC50 (second compound 0.000949 µM) of over 10000 nM, an IC50 (second compound 0.003 µM) of over 10000 nM and an IC50 (second compound 0.00949 µM) of over 10000 nM. For the same molecule, the IC50 (second compound 0.03 µM) was over 10000 nM, the IC50 (second compound 0.0949 µM) was over 10000 nM and the IC50 (second compound 0.3 µM) was over 10000 nM. It also gave a viability, T/C [1] of 92%, a viability, T/C [2] of 98.4% and a viability, T/C [3] of 84.9%. For the same molecule, the viability, T/C [4] was 92.2%, the viability, T/C [5] was 96.8% and the viability, T/C [6] was 56.7%. It also gave a viability, T/C [7] of 111%, a viability, T/C [8] of 73.6% and a viability, T/C [9] of 95.2%. It also gave a viability, T/C [10] of 81.6%, a viability, T/C [11] of 84.9% and a viability, T/C [12] of 55.5%. The viability, T/C [13] was 109%, the viability, T/C [14] was 70.8% and the viability, T/C [15] was 97.5%. The viability, T/C [16] was 79.2%, the viability, T/C [17] was 74.1% and the viability, T/C [18] was 56.4%. For the same molecule, the viability, T/C [19] was 96%, the viability, T/C [20] was 91.2% and the viability, T/C [21] was 93.6%. The viability, T/C [22] was 79.2%, the viability, T/C [23] was 69.8% and the viability, T/C [24] was 72.7%. The viability, T/C [25] was 88.9%, the viability, T/C [26] was 87.5% and the viability, T/C [27] was 104%. The viability, T/C [28] was 97.7%, the viability, T/C [29] was 65.9% and the viability, T/C [30] was 59.9%. The viability, T/C [31] was 85.8%, the viability, T/C [32] was 88.7% and the viability, T/C [33] was 85.4%. It also gave a viability, T/C [34] of 74%, a viability, T/C [35] of 62.3% and a viability, T/C [36] of 52.3%.

`CC(C)n1nc(-c2ccc3oc(N)nc3c2)c2c(N)ncnc21` + CCn1c(-c2cccnc2C(C)OC)c2c3cc(ccc31)N1CCOC(CC(NC(=O)C(C(C)C)N(C)C(=O)C3(F)CCN(C(=O)C#CC(C)(C)N(C)C)CC3)C(=O)N3CCCC(N3)C(=O)OCC(C)(C)C2)C1 gave an IC50 (second compound 0.000949 µM) of 43.5 nM, an IC50 (second compound 0.003 µM) of 44.8 nM and an IC50 (second compound 0.00949 µM) of 25.2 nM. The IC50 (second compound 0.03 µM) was 27.3 nM, the IC50 (second compound 0.0949 µM) was 20.4 nM and the IC50 (second compound 0.3 µM) was 18.4 nM. The viability, T/C (second compound 0.000949 µM, first compound 0.000316 µM) was 120%, the viability, T/C (second compound 0.000949 µM, first compound 0.001 µM) was 86.6% and the viability, T/C [37] was 81.6%. It also gave a viability, T/C [38] of 79.8%, a viability, T/C [1] of 62.2% and a viability, T/C [2] of 30.4%. It also gave a viability, T/C (second compound 0.003 µM, first compound 0.000316 µM) of 95.6%, a viability, T/C (second compound 0.003 µM, first compound 0.001 µM) of 80.3% and a viability, T/C [39] of 76.2%. It also gave a viability, T/C [40] of 73%, a viability, T/C [7] of 61.6% and a viability, T/C [8] of 30.9%. For the same molecule, the viability, T/C (second compound 0.00949 µM, first compound 0.000316 µM) was 102%, the viability, T/C (second compound 0.00949 µM, first compound 0.001 µM) was 77.9% and the viability, T/C [41] was 87.7%. For the same molecule, the viability, T/C [42] was 75%, the viability, T/C [13] was 43.4% and the viability, T/C [14] was 33.9%. For the same molecule, the viability, T/C (second compound 0.03 µM, first compound 0.000316 µM) was 89.5%, the viability, T/C (second compound 0.03 µM, first compound 0.001 µM) was 87.6% and the viability, T/C [43] was 92.4%. It also gave a viability, T/C [44] of 72.7%, a viability, T/C [19] of 47.6% and a viability, T/C [20] of 37.9%. It also gave a viability, T/C (second compound 0.0949 µM, first compound 0.000316 µM) of 76.1%, a viability, T/C (second compound 0.0949 µM, first compound 0.001 µM) of 78.8% and a viability, T/C [45] of 83.5%. For the same molecule, the viability, T/C [46] was 67.2%, the viability, T/C [25] was 39.5% and the viability, T/C [26] was 31.9%. For the same molecule, the viability, T/C (second compound 0.3 µM, first compound 0.000316 µM) was 88%, the viability, T/C (second compound 0.3 µM, first compound 0.001 µM) was 82% and the viability, T/C [47] was 70.5%. It also gave a viability, T/C [48] of 58.8%, a viability, T/C [31] of 42.4% and a viability, T/C [32] of 30%.

In the case of `CC(Nc1ccc2c(c1)OCCn1cc(N3C(=O)OCC3C(F)F)nc1-2)C(N)=O` (stereo not drawn) + CCn1c(-c2cccnc2C(C)OC)c2c3cc(ccc31)N1CCOC(CC(NC(=O)C(C(C)C)N(C)C(=O)C3(F)CCN(C(=O)C#CC(C)(C)N(C)C)CC3)C(=O)N3CCCC(N3)C(=O)OCC(C)(C)C2)C1, the IC50 (second compound 0.000949 µM) is reported as 918 nM, the IC50 (second compound 0.003 µM) is reported as 1110 nM and the IC50 (second compound 0.00949 µM) is reported as 1050 nM. It also gave an IC50 (second compound 0.03 µM) of 963 nM, an IC50 (second compound 0.0949 µM) of 872 nM and an IC50 (second compound 0.3 µM) of 329 nM. It also gave a viability, T/C [1] of 108%, a viability, T/C [2] of 81.6% and a viability, T/C [3] of 54.7%. For the same molecule, the viability, T/C [4] was 55%, the viability, T/C [5] was 36.5% and the viability, T/C [6] was 17.4%. The viability, T/C [7] was 91.4%, the viability, T/C [8] was 79.4% and the viability, T/C [9] was 64.8%. For the same molecule, the viability, T/C [10] was 51.2%, the viability, T/C [11] was 37.7% and the viability, T/C [12] was 18.1%. It also gave a viability, T/C [13] of 101%, a viability, T/C [14] of 79.8% and a viability, T/C [15] of 70%. For the same molecule, the viability, T/C [16] was 54%, the viability, T/C [17] was 29.9% and the viability, T/C [18] was 20.8%. For the same molecule, the viability, T/C [19] was 85.4%, the viability, T/C [20] was 83% and the viability, T/C [21] was 68.8%. The viability, T/C [22] was 52.3%, the viability, T/C [23] was 26.3% and the viability, T/C [24] was 22.9%. The viability, T/C [25] was 88.8%, the viability, T/C [26] was 77.9% and the viability, T/C [27] was 69.9%. It also gave a viability, T/C [28] of 48.6%, a viability, T/C [29] of 25.5% and a viability, T/C [30] of 17.7%. For the same molecule, the viability, T/C [31] was 77.5%, the viability, T/C [32] was 67.5% and the viability, T/C [33] was 50.4%. It also gave a viability, T/C [34] of 33.1%, a viability, T/C [35] of 22.7% and a viability, T/C [36] of 16.2%.

`O=C(c1ccc(F)c(F)c1Nc1ccc(I)cc1F)N1CC(O)([C@@H]2CCCCN2)C1` + CCn1c(-c2cccnc2C(C)OC)c2c3cc(ccc31)N1CCOC(CC(NC(=O)C(C(C)C)N(C)C(=O)C3(F)CCN(C(=O)C#CC(C)(C)N(C)C)CC3)C(=O)N3CCCC(N3)C(=O)OCC(C)(C)C2)C1 was tested, and the IC50 (second compound 0.000949 µM) was 96.3 nM, the IC50 (second compound 0.003 µM) was 123 nM and the IC50 (second compound 0.00949 µM) was 116 nM. For the same molecule, the IC50 (second compound 0.03 µM) was 119 nM, the IC50 (second compound 0.0949 µM) was 90.7 nM and the IC50 (second compound 0.3 µM) was 52.1 nM. It also gave a viability, T/C [37] of 92.3%, a viability, T/C [38] of 90.8% and a viability, T/C [1] of 51.1%. It also gave a viability, T/C [2] of 53.2%, a viability, T/C [3] of 38.9% and a viability, T/C [4] of 19.5%. The viability, T/C [39] was 87.2%, the viability, T/C [40] was 77.5% and the viability, T/C [7] was 65.7%. The viability, T/C [8] was 52.9%, the viability, T/C [9] was 38.7% and the viability, T/C [10] was 18.9%. For the same molecule, the viability, T/C [41] was 101%, the viability, T/C [42] was 69% and the viability, T/C [13] was 78.5%. For the same molecule, the viability, T/C [14] was 51.1%, the viability, T/C [15] was 33.7% and the viability, T/C [16] was 21%. The viability, T/C [43] was 93.3%, the viability, T/C [44] was 89.4% and the viability, T/C [19] was 76.9%. For the same molecule, the viability, T/C [20] was 54.9%, the viability, T/C [21] was 29.3% and the viability, T/C [22] was 22.4%. The viability, T/C [45] was 97.9%, the viability, T/C [46] was 88.1% and the viability, T/C [25] was 68%. The viability, T/C [26] was 52%, the viability, T/C [27] was 26.5% and the viability, T/C [28] was 22.1%. For the same molecule, the viability, T/C [47] was 87%, the viability, T/C [48] was 75.3% and the viability, T/C [31] was 60.6%. It also gave a viability, T/C [32] of 36.9%, a viability, T/C [33] of 24.2% and a viability, T/C [34] of 15.8%.
